Experiments:
[1] = target: human alpha1 nicotinic acetylcholine (nACh) receptor (Homo sapiens, UniProt P02708); assay: Nicotinic acetylcholine receptor antagonism assay, IONFlux automated patch clamp (Example 203); assay type: cell-based; conditions: for IC50: antagonism of ACh-stimulated human alpha1 nAChR current, patch clamp; for Emax at 10 µM: maximum percentage antagonism at maximum concentration tested 10 μM; for Emax at 100 µM: maximum percentage antagonism at maximum concentration tested 100 μM
Summary of the method: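 Cells expressing human α1 nAChR were incubated with a compound dose response (top 10 μM or 100 μM), then stimulated with ACh (10 mM), and peak current was read by automated patch clamp. % inhibition was taken against ACh-alone control, corrected for vehicle and run-down, and fit non-linearly for IC50; runs were averaged.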

[2] = target: anti-cotinine antibody (SEQ ID NO: 11/12, rabbit variable region with human IgG1 Fc DE mutation); assay: SPR binding of anti-cotinine antibody to ARM compounds, Biacore T200, 37° C. (Example 202); conditions: SPR Biacore T200, 37° C., pH 7.4, antibody SEQ ID NO: 11/12 captured on protein A; Kd in molar
Summary of the method: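 Run at 37 °C in 10 mM HEPES pH 7.4, 150 mM NaCl, 0.005% P20, 1% DMSO, with compounds titrated from 200 nM (five 3-fold steps) over protein A–captured antibody. A 1:1 kinetic model on double-referenced data gave rate constants, Kd as koff/kon and residence time 1/koff; results as pKd, run-averaged.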

human alpha1 nicotinic acetylcholine (nACh) receptor, sequence (P02708 21-457): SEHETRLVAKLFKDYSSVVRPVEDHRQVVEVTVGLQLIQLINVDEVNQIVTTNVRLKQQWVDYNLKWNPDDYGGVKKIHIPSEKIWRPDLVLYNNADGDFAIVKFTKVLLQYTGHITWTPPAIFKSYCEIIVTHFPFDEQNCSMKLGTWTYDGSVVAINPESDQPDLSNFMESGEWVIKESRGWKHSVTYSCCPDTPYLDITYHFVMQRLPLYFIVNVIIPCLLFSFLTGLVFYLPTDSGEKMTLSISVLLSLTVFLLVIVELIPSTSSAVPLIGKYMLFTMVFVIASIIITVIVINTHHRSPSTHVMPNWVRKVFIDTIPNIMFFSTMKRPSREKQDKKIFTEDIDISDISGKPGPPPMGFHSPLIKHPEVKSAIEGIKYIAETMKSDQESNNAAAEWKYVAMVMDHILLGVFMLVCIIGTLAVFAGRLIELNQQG
human alpha1 nicotinic acetylcholine (nACh) receptor, sequence (P11230 24-501 partner): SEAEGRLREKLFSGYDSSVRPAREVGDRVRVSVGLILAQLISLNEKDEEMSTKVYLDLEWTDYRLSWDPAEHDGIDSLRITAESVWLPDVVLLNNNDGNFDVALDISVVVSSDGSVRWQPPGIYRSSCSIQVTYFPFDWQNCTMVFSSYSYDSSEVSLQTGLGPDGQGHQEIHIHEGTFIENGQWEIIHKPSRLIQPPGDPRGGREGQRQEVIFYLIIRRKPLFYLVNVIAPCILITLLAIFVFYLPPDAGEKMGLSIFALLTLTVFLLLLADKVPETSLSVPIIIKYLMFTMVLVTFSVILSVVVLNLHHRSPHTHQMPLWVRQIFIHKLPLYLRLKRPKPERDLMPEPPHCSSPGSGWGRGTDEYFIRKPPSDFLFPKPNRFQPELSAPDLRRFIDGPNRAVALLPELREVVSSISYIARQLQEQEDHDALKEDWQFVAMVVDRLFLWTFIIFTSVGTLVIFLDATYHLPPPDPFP
human alpha1 nicotinic acetylcholine (nACh) receptor, sequence (Q07001 22-517 partner): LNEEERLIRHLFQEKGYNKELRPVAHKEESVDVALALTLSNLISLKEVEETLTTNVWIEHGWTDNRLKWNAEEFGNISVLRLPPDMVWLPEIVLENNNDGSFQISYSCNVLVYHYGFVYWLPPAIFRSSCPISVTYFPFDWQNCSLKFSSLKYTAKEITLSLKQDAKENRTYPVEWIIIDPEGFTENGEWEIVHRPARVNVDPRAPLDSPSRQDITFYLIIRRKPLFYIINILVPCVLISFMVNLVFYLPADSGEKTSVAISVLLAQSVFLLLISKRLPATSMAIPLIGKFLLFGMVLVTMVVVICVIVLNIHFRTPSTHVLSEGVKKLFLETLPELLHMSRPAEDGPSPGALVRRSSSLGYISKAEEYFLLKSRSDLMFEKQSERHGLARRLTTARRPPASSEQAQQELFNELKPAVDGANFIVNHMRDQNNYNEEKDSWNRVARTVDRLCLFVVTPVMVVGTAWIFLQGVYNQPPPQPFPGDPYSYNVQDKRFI

CC(C)N(C)[C@@H]1CC[C@H](N2CC[C@H](Nc3ncnc4ccc(C(F)(F)F)cc34)C2=O)[C@H](NC(=O)[C@H]2CC[C@H](NC(=O)CCCOC[C@H]3CC[C@@H](COCCNC(=O)[C@H]4CC(=O)N(C)[C@@H]4c4cccnc4)CC3)CC2)C1 [Example 57, (2S,3S)-N-(2-(((1S,4R)-4-((4-(((1R,4R)-4-(((1R,2S,5R)-5-(Isopropyl(methyl)amino)-2-((S)-2-oxo-3-((6-(trifluoromethyl)quinazolin-4-yl)amino)pyrrolidin-1-yl)cyclohexyl)carbamoyl)cyclohexyl)amino)-4-oxobutoxy)methyl)cyclohexyl)methoxy)ethyl)-1-methyl-5-oxo-2-(pyridin-3-yl)pyrrolidine-3-carboxamide]
IC50 [1]: ≥ 30 µM
Emax at 30 µM ([1]; maximum percentage antagonism at maximum concentration tested 30 μM, read-out: Maximum Response): 47.6%
pKd of Antibody for ARM Compound of Formula (I) [2]: 9.685

CC(C)N(C)[C@@H]1CC[C@H](N2CC[C@H](Nc3ncnc4ccc(C(F)(F)F)cc34)C2=O)[C@H](NC(=O)[C@H]2CC[C@@H](CC(=O)CCCOC[C@H]3CC[C@H](COCCNC(=O)[C@H]4CC(=O)N(C)[C@@H]4c4cccnc4)CC3)CC2)C1 [Example 60, (2S,3S)-N-(2-(((1R,4S)-4-(((5-((1S,4S)-4-(((1R,2S,5R)-5-(Isopropyl(methyl)amino)-2-((S)-2-oxo-3-((6-(trifluoromethyl)quinazolin-4-yl)amino)pyrrolidin-1-yl)cyclohexyl)carbamoyl)cyclohexyl)-4-oxopentyl)oxy)methyl)cyclohexyl)methoxy)ethyl)-1-methyl-5-oxo-2-(pyridin-3-yl)pyrrolidine-3-carboxamide]
IC50 [1]: ≥ 10 µM
Emax at 10 µM ([1]; read-out: Maximum Response): 18.2%
pKd of Antibody for ARM Compound of Formula (I) [2]: 9.4635

CC(C)N(C)[C@@H]1CC[C@H](N2CC[C@H](Nc3ncnc4ccc(C(F)(F)F)cc34)C2=O)[C@H](NC(=O)CCNC(=O)CCCOC[C@H]2CC[C@@H](COCCNC(=O)[C@H]3CC(=O)N(C)[C@@H]3c3cccnc3)CC2)C1 [Example 62, (2S,3S)-N-(2-(((1S,4R)-4-((4-((3-(((1R,2S,5R)-5-(Isopropyl(methyl)amino)-2-((S)-2-oxo-3-((6-(trifluoromethyl)quinazolin-4-yl)amino)pyrrrolidin-1-yl)cyclohexyl)amino)-3-oxopropyl)amino)-4-oxobutoxy)methyl)cyclohexyl)methoxy)ethyl)-1-methyl-5-oxo-2-(pyridin-3-yl)pyrrolidine-3-carboxamide]
IC50 [1]: 29 µM
Emax at 100 µM ([1]; read-out: Maximum Response): 67.9%
pKd of Antibody for ARM Compound of Formula (I) [2]: 9.6305

CC(C)N(C)[C@@H]1CC[C@H](N2CC[C@H](Nc3ncnc4ccc(C(F)(F)F)cc34)C2=O)[C@H](NC(=O)[C@H]2CC[C@@H](NC(=O)CCOCCOCCNC(=O)CNC(=O)[C@H]3CC(=O)N(C)[C@@H]3c3cccnc3)CC2)C1 [Example 63, (2S,3S)-N-(2-((2-(2-(3-(((1S,4s)-4-(((1R,2S,5R)-5-(Isopropyl(methyl)amino)-2-((S)-2-oxo-3-((6-(trifluoromethyl)quinazolin-4-yl)amino)pyrrolidin-1-yl)cyclohexyl)carbamoyl)cyclohexyl)amino)-3-oxopropoxy)ethoxy)ethyl)amino)-2-oxoethyl)-1-methyl-5-oxo-2-(pyridin-3-yl)pyrrolidine-3-carboxamide]
IC50 [1]: 38.5 µM
Emax at 100 µM ([1]; read-out: Maximum Response): 76.6%
pKd of Antibody for ARM Compound of Formula (I) [2]: 8.674

CC(C)N(C)[C@@H]1CC[C@H](N2CC[C@H](Nc3ncnc4ccc(C(F)(F)F)cc34)C2=O)[C@H](NC(=O)CCOCCOCCNC(=O)CCOCCOCCNC(=O)[C@H]2CC(=O)N(C)[C@@H]2c2cccnc2)C1 [Example 76, (2S,3S)-N-(19-(((1R,2S,5R)-5-(Isopropyl(methyl)amino)-2-((S)-2-oxo-3-((6-(trifluoromethyl)quinazolin-4-yl)amino)pyrrolidin-1-yl)cyclohexyl)amino)-9,19-dioxo-3,6,13,16-tetraoxa-10-azanonadecyl)-1-methyl-5-oxo-2-(pyridin-3-yl)pyrrolidine-3-carboxamide]
IC50 [1]: 32.4 µM
Emax at 100 µM ([1]; read-out: Maximum Response): 67.7%
pKd of Antibody for ARM Compound of Formula (I) [2]: 9.1155

CC(C)N(C)[C@@H]1CC[C@H](N2CC[C@H](Nc3ncnc4ccc(C(F)(F)F)cc34)C2=O)[C@H](NC(=O)[C@H]2CC[C@@H](NC(=O)COCCNC(=O)COCCNC(=O)[C@H]3CC(=O)N(C)[C@@H]3c3cccnc3)CC2)C1 [Example 99, (2S,3S)-N-(2-(2-((2-(2-(((1S,4s)-4-(((1R,2S,5R)-5-(Isopropyl(methyl)amino)-2-((S)-2-oxo-3-((6-(trifluoromethyl)quinazolin-4-yl)amino)pyrrolidin-1-yl)cyclohexyl)carbamoyl)cyclohexyl)amino)-2-oxoethoxy)ethyl)amino)-2-oxoethoxy)ethyl)-1-methyl-5-oxo-2-(pyridin-3-yl)pyrrolidine-3-carboxamide]
IC50 [1]: 33.1 µM
Emax at 100 µM ([1]; read-out: Maximum Response): 71.1%
pKd of Antibody for ARM Compound of Formula (I) [2]: 9.062

CC(C)N(C)[C@@H]1CC[C@H](N2CC[C@H](Nc3ncnc4ccc(C(F)(F)F)cc34)C2=O)[C@H](NC(=O)CCOCCNC(=O)COCCNC(=O)COCCNC(=O)[C@H]2CC(=O)N(C)[C@@H]2c2cccnc2)C1 [Example 102, (2S,3S)-N-(18-(((1R,2S,5R)-5-(Isopropyl(methyl)amino)-2-((S)-2-oxo-3-((6-(trifluoromethyl)quinazolin-4-yl)amino)pyrrolidin-1-yl)cyclohexyl)amino)-5,11,18-trioxo-3,9,15-trioxa-6,12-diazaoctadecyl)-1-methyl-5-oxo-2-(pyridin-3-yl)pyrrolidine-3-carboxamide]
IC50 [1]: 66.1 µM
Emax at 100 µM ([1]; read-out: Maximum Response): 61.3%
pKd of Antibody for ARM Compound of Formula (I) [2]: 9.076

CC(C)N(C)[C@@H]1CC[C@H](N2CC[C@H](Nc3ncnc4ccc(C(F)(F)F)cc34)C2=O)[C@H](NC(=O)CCOCCNC(=O)CCOCCNC(=O)COCCNC(=O)[C@H]2CC(=O)N(C)[C@@H]2c2cccnc2)C1 [Example 105, (2S,3S)-N-(19-(((1R,2S,5R)-5-(Isopropyl(methyl)amino)-2-((S)-2-oxo-3-((6-(trifluoromethyl)quinazolin-4-yl)amino)pyrrolidin-1-yl)cyclohexyl)amino)-5,12,19-trioxo-3,9,16-trioxa-6,13-diazanonadecyl)-1-methyl-5-oxo-2-(pyridin-3-yl)pyrrolidine-3-carboxamide]
IC50 [1]: 38.9 µM
Emax at 100 µM ([1]; read-out: Maximum Response): 75.7%
pKd of Antibody for ARM Compound of Formula (I) [2]: 9.0705

CC(C)N(C)[C@@H]1CC[C@H](N2CC[C@H](Nc3ncnc4ccc(C(F)(F)F)cc34)C2=O)[C@H](NC(=O)CCOCCNC(=O)[C@H]2CC[C@@H](NC(=O)COCCNC(=O)[C@H]3CC(=O)N(C)[C@@H]3c3cccnc3)CC2)C1 [Example 107, (2S,3S)-N-(2-(2-(((1S,4R)-4-((2-(3-(((1R,2S,5R)-5-(Isopropyl(methyl)amino)-2-((S)-2-oxo-3-((6-(trifluoromethyl)quinazolin-4-yl)amino)pyrrolidin-1-yl)cyclohexyl)amino)-3-oxopropoxy)ethyl)carbamoyl)cyclohexyl)amino)-2-oxoethoxy)ethyl)-1-methyl-5-oxo-2-(pyridin-3-yl)pyrrolidine-3-carboxamide]
IC50 [1]: ≥ 10 µM
Emax at 10 µM ([1]; read-out: Maximum Response): 12.2%
pKd of Antibody for ARM Compound of Formula (I) [2]: 9.161

CC(C)N(C)[C@@H]1CC[C@H](N2CC[C@H](Nc3ncnc4ccc(C(F)(F)F)cc34)C2=O)[C@H](NC(=O)COCCNC(=O)COCCNC(=O)COCCNC(=O)[C@H]2CC(=O)N(C)[C@@H]2c2cccnc2)C1 [Example 111, (2S,3S)-N-(17-(((1R,2S,5R)-5-(Isopropyl(methyl)amino)-2-((S)-2-oxo-3-((6-(trifluoromethyl)quinazolin-4-yl)amino)pyrrolidin-1-yl)cyclohexyl)amino)-5,11,17-trioxo-3,9,15-trioxa-6,12-diazaheptadecyl)-1-methyl-5-oxo-2-(pyridin-3-yl)pyrrolidine-3-carboxamide]
IC50 [1]: 52.9 µM
Emax at 100 µM ([1]; read-out: Maximum Response): 67.6%
pKd of Antibody for ARM Compound of Formula (I) [2]: 9.0855

CC(C)N(C)[C@@H]1CC[C@H](N2CC[C@H](Nc3ncnc4ccc(C(F)(F)F)cc34)C2=O)[C@H](NC(=O)CNC(=O)[C@H]2CC[C@@H](NC(=O)CCOCCOCCNC(=O)[C@H]3CC(=O)N(C)[C@@H]3c3cccnc3)CC2)C1 [Example 137, (2S,3S)-N-(2-(2-(3-(((1S,4s)-4-((2-(((1R,2S,5R)-5-(Isopropyl(methyl)amino)-2-((S)-2-oxo-3-((6-(trifluoromethyl)quinazolin-4-yl)amino)pyrrolidin-1-yl)cyclohexyl)amino)-2-oxoethyl)carbamoyl)cyclohexyl)amino)-3-oxopropoxy)ethoxy)ethyl)-1-methyl-5-oxo-2-(pyridin-3-yl)pyrrolidine-3-carboxamide]
IC50 [1]: 70 µM
Emax at 100 µM ([1]; read-out: Maximum Response): 62%
pKd of Antibody for ARM Compound of Formula (I) [2]: 9.336

CC(C)N(C)[C@@H]1CC[C@H](N2CC[C@H](Nc3ncnc4ccc(C(F)(F)F)cc34)C2=O)[C@H](NC(=O)[C@H]2CC[C@@H](NC(=O)CCOCCNC(=O)CCNC(=O)CCNC(=O)[C@H]3CC(=O)N(C)[C@@H]3c3cccnc3)CC2)C1 [Example 182, (2S,3S)-N-(3-((3-((2-(3-(((1S,4s)-4-(((1R,2S,5R)-5-(Isopropyl(methyl)amino)-2-((S)-2-oxo-3-((6-(trifluoromethyl)quinazolin-4-yl)amino)pyrrolidin-1-yl)cyclohexyl)carbamoyl)cyclohexyl)amino)-3-oxopropoxy)ethyl)amino)-3-oxopropyl)amino)-3-oxopropyl)-1-methyl-5-oxo-2-(pyridin-3-yl)pyrrolidine-3-carboxamide]
IC50 [1]: 76.4 µM
Emax at 100 µM ([1]; read-out: Maximum Response): 61.9%
pKd of Antibody for ARM Compound of Formula (I) [2]: 9.117

Source: patent publication US12521393B2, “Cytotoxicity targeting chimeras for CCR2-expressing cells” (GLAXOSMITHKLINE INTELLECTUAL PROPERTY DEVELOPMENT LIMITED, priority 2021, dated 2026)
